Earlier results as cited in patent US20220142892A1, “PROCESS FOR THE PREPARATION AND USE OF HAIR TREATMENT COMPOSITIONS CONTAINING ORGANIC C1-C6 ALKOXY SILANES” (Henkel AG & Co. KGaA, priority 2019, published 2022).

Conditions: 25° C.

| solubility in water (in words) | Compound | solubility in water |
| --- | --- | --- |
| highly soluble | O=C([O-])C1=NN(c2ccc(S(=O)(=O)[O-])cc2)C(=O)C1N=Nc1ccc(S(=O)(=O)[O-])cc1.[Na+].[Na+].[Na+] (stereo not shown) [Acid Yellow 23, trisodium salt of 4,5-dihydro-5-oxo-1-(4-sulfophenyl)-4-((4-sulfophenyl)azo)-1H-pyrazole-3-carboxylic acid] | – |
| – | O=C([O-])c1c(Cl)c(Cl)c(Cl)c(Cl)c1-c1c2c(Br)cc(=O)c(Br)c-2oc2c(Br)c(O)cc(Br)c12.O=C([O-])c1c(Cl)c(Cl)c(Cl)c(Cl)c1-c1c2c(Br)cc(=O)c(Br)c-2oc2c(Br)c(O)cc(Br)c12.[Na+].[Na+] [Acid Red 92, disodium salt of 3,4,5,6-tetrachloro-2-(1,4,5,8-tetrabromo-6-hydroxy-3-oxoxanthen-9-yl)benzoic acid] | greater than 10 g/L |
| – | Nc1cc(S(=O)(=O)[O-])cc2cc(S(=O)(=O)[O-])c(N=Nc3ccccc3)c(O)c12.[Na+].[Na+] [Acid Red 33, diantrium salt of 5-amino-4-hydroxy-3-(phenylazo)-naphthalene-2,7-disulphonate] | 2.5 g/L |
| – | O=S(=O)([O-])c1ccc(N=Nc2c(O)ccc3ccccc23)cc1.[Na+] [Acid Orange 7, sodium salt of 4-[(2-hydroxy-1-naphthyl)azo]benzene sulphonate] | more than 7 g/L |
